In ChEMBL document CHEMBL2069209, “Identification of selective tubulin inhibitors as potential anti-trypanosomal agents” (Bioorg Med Chem Lett, 2012):

Legend:
[1] = tested on: Trypanosoma brucei; test: Antitrypanosomal activity against bloodstream form of Trypanosoma brucei 427 after 48 hrs by MTS assay; format: functional, organism-based; conditions: Trypanosoma brucei, 427, 48 h
[2] = Selectivity ratio of IC50 for human SKBR3 cells to IC50 for bloodstream form of Trypanosoma brucei 427; format: ADME, cell-based, SK-BR-3; conditions: read-out: Ratio IC50
[3] = tested on: SK-BR-3; test: Growth inhibition of human SKBR3 cells after 48 hrs by MTT assay; format: cell-based; conditions: SK-BR-3, 48 h

SMILES	IC50 [1] [nM]	selectivity ratio [2]	IC50 [3] [nM]
O=C(Nc1ccncc1)C(=O)c1cn(Cc2ccc(Cl)cc2)c2ccccc12 [INDIBULIN]	114000	–	33
COC(=O)Nc1nc2cc(C(=O)c3cccs3)ccc2[nH]1 [NOCODAZOLE]	44200	–	84
Cc1ccc(C)c(COc2cc(NC(=O)c3ccc4c(c3)OCO4)ccc2N(C)S(C)(=O)=O)c1	3220	0.1	–
COc1ccc(CC(=O)Nc2ccc(N(C)S(C)(=O)=O)c(OCc3cc(C)ccc3C)c2)cc1OC	6850	5	–
COc1ccc(S(=O)(=O)Nc2cccnc2Nc2ccc(O)cc2)cc1 [ABT-751]	82100	–	740

The next lines start with results.

IC50 [1] [nM]	SMILES	selectivity ratio [2]	IC50 [3] [nM]
2300	CN(c1ccc(NC(=O)c2ccc(Cl)c([N+](=O)[O-])c2)cc1OCc1ccccc1)S(C)(=O)=O	4	–
410	CC[C@]1(O)C[C@@H]2CN(CCc3c([nH]c4ccccc34)[C@@](C(=O)OC)(c3cc4c(cc3OC)N(C)[C@H]3[C@@](O)(C(=O)OC)[C@H](OC(C)=O)[C@]5(CC)C=CCN6CC[C@]43[C@@H]65)C2)C1 [VINBLASTINE]	–	0.91
4.6	CC(=O)O[C@H]1C(=O)[C@@]2(C)[C@H]([C@H](OC(=O)c3ccccc3)[C@]3(O)C[C@H](OC(=O)[C@H](O)[C@@H](NC(=O)c4ccccc4)c4ccccc4)C(C)=C1C3(C)C)[C@]1(OC(C)=O)CO[C@@H]1C[C@@H]2O [PACLITAXEL]	–	–
2800	CN(c1ccc(NC(=O)c2ccc(C#N)cc2)cc1OCc1ccccc1)S(C)(=O)=O	6	–
51300	Cc1ccc(C)c(COc2cc(NC(=O)Cc3ccccc3)ccc2N(C)S(C)(=O)=O)c1	2.3	–
6440	Cc1ccc(C)c(COc2cc(NC(=O)c3ccccc3)ccc2N(C)S(C)(=O)=O)c1	0.6	–
